Assay results as given in publication PMC8422164, “A comparison of three mucus-secreting airway cell lines (Calu-3, SPOC1 and UNCN3T) for use as biopharmaceutical models of the nose and lung” (European Journal of Pharmaceutics and Biopharmaceutics, 2021).

Tests used:
UNCN3T cells [1] = assay: Mucin secretion (ELLA) in response to inhaled drugs, UNCN3T on Geltrex-coated plastic; assay type: cell-based, human
Experimental: Wells were then washed three times with phosphate buffered saline (PBS) containing 0.05 % v/v Tween, 0.5 % w/v bovine gelatin type B (Sigma Aldrich), and blocked by incubation with PBS containing 1.0 % w/v gelatin at 37 °C for 1 h. […] Wells with samples from UNC[…] cells were incubated with biotinylated-Helix pomatia agglutinin prepared in the blocking solution. These wells were then washed before incubation with HRP-labelled streptavidin. Finally, plates containing samples from all cell lines were washed repeatedly and developed by the addition of substrate solution which consisted of o-phenylene diamine (Sigma […] tablet) prepared according to manufacturer's instructions, for 3 min at room temperature, after which the reaction was terminated by the addition of 20% (v/v) H2SO4. The absorbance at 492 nm was measured using an Ascent MultiskanTM plate reader (Thermo Fisher Scientific). The absorbance of the samples was compared with known mucin standards, purified by two rounds of density gradient ultracentrifugation, as described by […] et al., from the sputum of a volunteer with chronic obstructive pulmonary disease. Ethical approval was obtained from the University of Brighton School of Pharmacy and Biomolecular Sciences Ethics Committee, under reference PABSREC 0509, and informed consent was obtained from the volunteer.

UNCN3T cells [2] = assay: Cytokine release (ELISA) in response to inhaled drugs, UNCN3T
Experimental: SPOC1 or UNCN3T cells were seeded onto 24-well tissue culture treated plates, pre-coated with a 1/20 dilution of Geltrex™. Cells were seeded at 5 × 10^4 cells/well and grown to confluence in the appropriate maintenance medium. The cells were washed four times (20 min per wash) with TB appropriate to each cell line after which the cells were incubated for 30 min at 37 °C 5% CO2/95% air in control or drug solutions prepared in the appropriate transport buffer. […] Samples from UNCN3T cells (human origin) were analysed for IL-6 and IL-8. Cytokines and mucins were quantified using ELISAs (Legend Max, BioLegend San Diego, CA) according to the manufacturer’s instructions and ELLA respectively.

UNCN3T cells [3] = assay: Enhancement of mucin secretion using AMP-PNP (Secretagogue model), ELLA, UNCN3T; assay type: cell-based, human
Experimental: Cells cultured on inserts were arbitrarily divided into two groups termed 'low mucus' and 'high mucus'. […] Plates were kept on a shock-absorbing foam pad to prevent inadvertent mechanical stimulation of mucin secretion. […] Washes were stored at 4 °C until mucin secretion could be determined using an ELLA (on the day of treatment). At 10, 20 and 30 min, three further washes were performed and the average mucin content used to establish baseline mucin secretion. […] Each AMP-PNP/TB apical solution was changed (“like for like”) at 10-minute intervals. […] Wells were then washed three times with phosphate buffered saline (PBS) containing 0.05 % v/v Tween, 0.5 % w/v bovine gelatin type B (Sigma Aldrich), and blocked by incubation with PBS containing 1.0 % w/v gelatin at 37 °C for 1 h. […] Wells with samples from UNC[…] cells were incubated with biotinylated-Helix pomatia agglutinin prepared in the blocking solution. These wells were then washed before incubation with HRP-labelled streptavidin. Finally, plates containing samples from all cell lines were washed repeatedly and developed by the addition of substrate solution which consisted of o-phenylene diamine (Sigma […] tablet) prepared according to manufacturer's instructions, for 3 min at room temperature, after which the reaction was terminated by the addition of 20% (v/v) H2SO4. The absorbance at 492 nm was measured using an Ascent MultiskanTM plate reader (Thermo Fisher Scientific). The absorbance of the samples was compared with known mucin standards, purified by two rounds of density gradient ultracentrifugation, as described by […] et al., from the sputum of a volunteer with chronic obstructive pulmonary disease. Ethical approval was obtained from the University of Brighton School of Pharmacy and Biomolecular Sciences Ethics Committee, under reference PABSREC 0509, and informed consent was obtained from the volunteer.

UNCN3T cells [4] = assay: TEER of UNCN3T cells before and after AMP-PNP; conditions: AMP-PNP 100 μM
Calu-3 cells = assay: Enhancement of mucin secretion using AMP-PNP (Secretagogue model), ELLA, Calu-3; assay type: cell-based, human; conditions: Calu-3, AMP-PNP 100 μM, apical
Experimental: Cells cultured on inserts were arbitrarily divided into two groups termed 'low mucus' and 'high mucus'. […] Plates were kept on a shock-absorbing foam pad to prevent inadvertent mechanical stimulation of mucin secretion. […] Washes were stored at 4 °C until mucin secretion could be determined using an ELLA (on the day of treatment). At 10, 20 and 30 min, three further washes were performed and the average mucin content used to establish baseline mucin secretion. […] Each AMP-PNP/TB apical solution was changed (“like for like”) at 10-minute intervals. […] Wells were then washed three times with phosphate buffered saline (PBS) containing 0.05 % v/v Tween, 0.5 % w/v bovine gelatin type B (Sigma Aldrich), and blocked by incubation with PBS containing 1.0 % w/v gelatin at 37 °C for 1 h. […] Wells with samples from UNC[…] cells were incubated with biotinylated-Helix pomatia agglutinin prepared in the blocking solution. These wells were then washed before incubation with HRP-labelled streptavidin. […] The absorbance at 492 nm was measured using an Ascent MultiskanTM plate reader (Thermo Fisher Scientific). The absorbance of the samples was compared with known mucin standards, purified by two rounds of density gradient ultracentrifugation, as described by […] et al., from the sputum of a volunteer with chronic obstructive pulmonary disease. […]

[5] = UNCN3T control wells treated with 100 μM AMP-PNP at 100 min, by 120 min, data not shown

CCCC1O[C@@H]2C[C@H]3[C@@H]4CCC5=CC(=O)C=C[C@]5(C)[C@H]4[C@@H](O)C[C@]3(C)[C@]2(C(=O)CO)O1 (some centres unmarked) [budesonide]
Effect on mucin secretion (UNCN3T cells [1]; UNCN3T, inhaled drugs, vs culture medium alone): no effect | Effect on IL-8 release (UNCN3T cells [2]; 20 μM, 30 min): significantly increased

O=S(=O)([O-])[O-].[O]=[V+2] [VOSO4, Vanadium (IV) oxide sulfate]
IL-6 release, fold that of culture medium (UNCN3T cells [2]): 66 fold | IL-6 release (UNCN3T cells [2]; VOSO4 20 μg mL^−1, 30 min, medium alone 1.9 ± 0.3): 124.0 ± 6.5 pg/mL | IL-8 release (UNCN3T cells [2]; VOSO4 20 μg mL^−1, 30 min, medium alone 12.5 ± 0.6): 251.1 ± 14.5 pg/mL

Nc1ncnc2c1ncn2[C@@H]1O[C@H](COP(=O)([O-])OP(=O)([O-])NP(=O)([O-])[O-])[C@@H](O)[C@H]1O.[Li+].[Li+].[Li+].[Li+] [AMP-PNP, adenylyl-imidodiphosphate, tetralithium salt]
Fold increase in mucin secretion (UNCN3T cells [3]; [5]): 1.5 fold | Mucin level after AMP-PNP (UNCN3T cells [3]; [5]): 4.34 ± 0.83 ng/well | Fold increase in mucin secretion (UNCN3T cells [3]; UNCN3T, AMP-PNP 100 μM, vs baseline): 2 fold | Mucin level after AMP-PNP (UNCN3T cells [3]; UNCN3T, AMP-PNP 100 μM, baseline 2.91 ± 0.92): 5.44 ± 1.63 ng/well | Mucin secretion (UNCN3T cells [1]; UNCN3T on Geltrex-coated plastic, AMP-PNP 100 μM, 30 min, medium alone 0.94 ± 0.04): 3.22 ± 0.24 ng/well | Effect upon TEER (UNCN3T cells [4]): no discernible effect | Mean TEER after treatment (UNCN3T cells [4]; before treatment 229 ± 20): 219 ± 19 Ω.cm^2 | Effect on quantity of mucin secreted (Calu-3 cells): no significant increase | Effect on quantity of mucin secreted (Calu-3 cells; listed as adenylyl-imidodiphosphate): not
